Like-named read-outs stand apart in the source and are kept apart here.
Test system: HIV-1 (IIIB)
Experiment: Antiviral (HIV) assay in MT-4 cells
Format: cell-based
Details: HIV-1 IIIB in MT-4 cells, 5 days incubation, Cell Titer Glo, average of at least two independent experiments
Procedure: Example 104: Antiviral (HIV) Assay in MT-4 Cells
Compounds were tested in a high-throughput 384-well assay format for their ability to inhibit the replication of HIV-1 (IIIB) in MT-4 cells. Compounds were serially diluted (1:3) in DMSO on 384-well polypropylene plates and further diluted 200-fold into complete RPMI media (10% FBS, 1% P/S) using the Biotek Micro Flow and Labcyte ECHO acoustic dispenser. Each plate contained up to 8 test compounds, with negative (no drug) and positive (5 μM AZT) controls. MT-4 cells were pre-treated with 10 μL of either RPMI (mock-infected) or a fresh 1:250 dilution of HIV-1 IIIB concentrated virus stock. Infected and uninfected MT-4 cells were further diluted in complete RPMI media and added to each plate using a Micro Flow dispenser. After 5 days incubation in a humidified and temperature-controlled incubator (37° C.), Cell Titer Glo (Promega) was added to the assay plates and chemiluminescence read using an Envision plate-reader. EC50 values were defined as the compound concentration that causes a 50% decrease in luminescence signal and were calculated using a sigmoidal dose-response model to generate curve fits and are shown in Table 1.

[1] = Human immunodeficiency virus 1, MT4, 120 h

Row | Structure (SMILES) | EC50 [1] | EC50 (read-out: MT4 HIV EC50)
1 | C[C@H](Cn1cnc2c(N)ncnc21)OCP(=O)(NC(C)(C)C(=O)OCC1CC2(CCC2)C1)NC(C)(C)C(=O)OCC1CC2(CCC2)C1 (stereo partly drawn) [Example 50, Bis(spiro[3.3]heptan-2-ylmethyl) 2,2′-(((((1-(6-amino-9H-purin-9-yl)propan-2-yl)oxy)methyl)phosphoryl)bis(azanediyl))(R)-bis(2-methylpropanoate)] | 7 nM | –
2 | C[C@H](Cn1cnc2c(N)ncnc21)OCP(=O)(NC(C)(C)C(=O)O[C@H]1C[C@@H](C(C)(C)C)C1)NC(C)(C)C(=O)O[C@H]1C[C@@H](C(C)(C)C)C1 [Example 51, Bis((1S,3S)-3-(tert-butyl)cyclobutyl) 2,2′-((((((R)-1-(6-amino-9H-purin-9-yl)propan-2-yl)oxy)methyl)phosphoryl)bis(azanediyl))bis(2-methylpropanoate)] | 8 nM | –
3 | C[C@H](Cn1cnc2c(N)ncnc21)OCP(=O)(NC(C)(C)C(=O)O[C@H]1C[C@H](C(C)(C)C)C1)NC(C)(C)C(=O)O[C@H]1C[C@H](C(C)(C)C)C1 [Example 52, Bis((1R,3R)-3-(tert-butyl)cyclobutyl) 2,2′-((((((R)-1-(6-amino-9H-purin-9-yl)propan-2-yl)oxy)methyl)phosphoryl)bis(azanediyl))bis(2-methylpropanoate)] | 8 nM | –
4 | C[C@H](Cn1cnc2c(N)ncnc21)OCP(=O)(NC(C)(C)C(=O)OCC1CCC2(CCC2)CC1)NC(C)(C)C(=O)OCC1CCC2(CCC2)CC1 (stereo partly drawn) [Example 53, Bis(spiro[3.5]nonan-7-ylmethyl) 2,2′-(((((1-(6-amino-9H-purin-9-yl)propan-2-yl)oxy)methyl)phosphoryl)bis(azanediyl))(R)-bis(2-methylpropanoate)] | 6 nM | –
5 | CCC(C)(C)CCOC(=O)C(C)(C)NP(=O)(CO[C@H](C)Cn1cnc2c(N)ncnc21)NC(C)(C)C(=O)OCCC(C)(C)CC [Example 54, Bis(3,3-dimethylpentyl) 2,2′-(((((1-(6-amino-9H-purin-9-yl)propan-2-yl)oxy)methyl)phosphoryl)bis(azanediyl))(R)-bis(2-methylpropanoate)] | 4 nM | –
6 | C[C@H](Cn1cnc2c(N)ncnc21)OCP(=O)(NC(C)(C)C(=O)O[C@H](C)C1CCCCC1)NC(C)(C)C(=O)O[C@H](C)C1CCCCC1 [Example 55, Bis((R)-1-cyclohexylethyl) 2,2′-((((((R)-1-(6-amino-9H-purin-9-yl)propan-2-yl)oxy)methyl)phosphoryl)bis(azanediyl))bis(2-methylpropanoate)] | 101 nM | –
7 | C[C@H](Cn1cnc2c(N)ncnc21)OCP(=O)(NC(C)(C)C(=O)O[C@@H](C)C1CCCCC1)NC(C)(C)C(=O)O[C@@H](C)C1CCCCC1 [Example 56, Bis((S)-1-cyclohexylethyl) 2,2′-((((((R)-1-(6-amino-9H-purin-9-yl)propan-2-yl)oxy)methyl)phosphoryl)bis(azanediyl))bis(2-methylpropanoate)] | 177 nM | –
8 | C[C@H](Cn1cnc2c(N)ncnc21)OCP(=O)(NC(C)(C)C(=O)OCC1CC2(C1)CC1(CCC1)C2)NC(C)(C)C(=O)OCC1CC2(C1)CC1(CCC1)C2 [Example 57, Bis(dispiro[3.1.3^6.1^4]decan-2-ylmethyl) 2,2′-(((((1-(6-amino-9H-purin-9-yl)propan-2-yl)oxy)methyl)phosphoryl)bis(azanediyl))(R)-bis(2-methylpropanoate)] | 23 nM | –
9 | C[C@H](Cn1cnc2c(N)ncnc21)OCP(=O)(NC(C)(C)C(=O)OCC1CC2(C1)CC(F)(F)C2)NC(C)(C)C(=O)OCC1CC2(C1)CC(F)(F)C2 [Example 58, Bis((6,6-difluorospiro[3.3]heptan-2-yl)methyl) 2,2′-(((((1-(6-amino-9H-purin-9-yl)propan-2-yl)oxy)methyl)phosphoryl)bis(azanediyl))(R)-bis(2-methylpropanoate)] | 5 nM | –
10 | C[C@H](Cn1cnc2c(N)ncnc21)OCP(=O)(NC(C)(C)C(=O)OCC12CC3CC(CC(C3)C1)C2)NC(C)(C)C(=O)OCC12CC3CC(CC(C3)C1)C2 [Example 59, Bis(((1S,3S)-adamantan-1-yl)methyl) 2,2′-((((((R)-1-(6-amino-9H-purin-9-yl)propan-2-yl)oxy)methyl)phosphoryl)bis(azanediyl))bis(2-methylpropanoate)] | 47 nM | –
11 | C[C@H](Cn1cnc2c(N)ncnc21)OCP(=O)(NC(C)(C)C(=O)O[C@@H]1C[C@@H]2C[C@@H]2C1)NC(C)(C)C(=O)O[C@@H]1C[C@@H]2C[C@@H]2C1 [Example 60, Di((1R,3R,5S)-bicyclo[3.1.0]hexan-3-yl) 2,2′-((((((R)-1-(6-amino-9H-purin-9-yl)propan-2-yl)oxy)methyl)phosphoryl)bis(azanediyl))bis(2-methylpropanoate)] | 3 nM | –
12 | C[C@H](Cn1cnc2c(N)ncnc21)OCP(=O)(NC(C)(C)C(=O)OC1CCC2(CCCC2)CC1)NC(C)(C)C(=O)OC1CCC2(CCCC2)CC1 (stereo partly drawn) [Example 61, Di(spiro[4.5]decan-8-yl) 2,2′-(((((1-(6-amino-9H-purin-9-yl)propan-2-yl)oxy)methyl)phosphoryl)bis(azanediyl))(R)-bis(2-methylpropanoate)] | 28 nM | –
13 | C[C@H](Cn1cnc2c(N)ncnc21)OCP(=O)(NC(C)(C)C(=O)OCCC12CC(C1)C2)NC(C)(C)C(=O)OCCC12CC(C1)C2 [Example 62, Bis(2-(bicyclo[1.1.1]pentan-1-yl)ethyl) 2,2′-(((((1-(6-amino-9H-purin-9-yl)propan-2-yl)oxy)methyl)phosphoryl)bis(azanediyl))(R)-bis(2-methylpropanoate)] | 7 nM | –
14 | C[C@H](Cn1cnc2c(N)ncnc21)OCP(=O)(NC(C)(C)C(=O)OC1CCC2(CCC2)CC1)NC(C)(C)C(=O)OC1CCC2(CCC2)CC1 (stereo partly drawn) [Example 63, Di(spiro[3.5]nonan-7-yl) 2,2′-(((((1-(6-amino-9H-purin-9-yl)propan-2-yl)oxy)methyl)phosphoryl)bis(azanediyl))(R)-bis(2-methylpropanoate)] | 7 nM | –
15 | CCCCCCOC(=O)C(NP(=O)(CO[C@H](C)Cn1cnc2c(N)ncnc21)NC(C(=O)OCCCCCC)(C1CC1)C1CC1)(C1CC1)C1CC1 [Example 64, Dihexyl 2,2′-(((((1-(6-amino-9H-purin-9-yl)propan-2-yl)oxy)methyl)phosphoryl)bis(azanediyl))(R)-bis(2,2-dicyclopropylacetate)] | > 500 nM | –
16 | CCCCCCOC(=O)C(CC)(CC)NP(=O)(CO[C@H](C)Cn1cnc2c(N)ncnc21)NC(CC)(CC)C(=O)OCCCCCC [Example 65, Dihexyl 2,2′-(((((1-(6-amino-9H-purin-9-yl)propan-2-yl)oxy)methyl)phosphoryl)bis(azanediyl))(R)-bis(2-ethylbutanoate)] | > 500 nM | –
17 | CCCCCCCOC(=O)C(C)(C)NP(=O)(CO[C@H](C)Cn1cnc2c(N)ncnc21)NC(C)(C)C(=O)OCCCCCCC [Example 66, Diheptyl 2,2′-(((((1-(6-amino-9H-purin-9-yl)propan-2-yl)oxy)methyl)phosphoryl)bis(azanediyl))(R)-bis(2-methylpropanoate)] | 9 nM | –
18 | CC(C)CCCCOC(=O)C(C)(C)NP(=O)(CO[C@H](C)Cn1cnc2c(N)ncnc21)NC(C)(C)C(=O)OCCCCC(C)C [Example 68, Bis(5-methylhexyl) 2,2′-(((((1-(6-amino-9H-purin-9-yl)propan-2-yl)oxy)methyl)phosphoryl)bis(azanediyl))(R)-bis(2-methylpropanoate)] | 9 nM | –
19 | CCCC(CCC)COC(=O)C(C)(C)NP(=O)(CO[C@H](C)Cn1cnc2c(N)ncnc21)NC(C)(C)C(=O)OCC(CCC)CCC [Example 69, Bis(2-propylpentyl) 2,2′-(((((1-(6-amino-9H-purin-9-yl)propan-2-yl)oxy)methyl)phosphoryl)bis(azanediyl))(R)-bis(2-methylpropanoate)] | 24 nM | –
20 | CCC(CC)COC(=O)C1(NP(=O)(CO[C@H](C)Cn2cnc3c(N)ncnc32)NC2(C(=O)OCC(CC)CC)CC2)CC1 [Example 70, Bis(2-ethylbutyl) 1,1′-(((((1-(6-amino-9H-purin-9-yl)propan-2-yl)oxy)methyl)phosphoryl)bis(azanediyl))(R)-bis(cyclopropane-1-carboxylate)] | > 500 nM | –
21 | CCC(CC)COC(=O)C(C)(C)N[P@](=O)(CO[C@H](C)Cn1cnc2c(N)ncnc21)NC1(C(=O)OCC(CC)CC)CC1 [Example 71, 2-Ethylbutyl 1-(((R)-((((R)-1-(6-amino-9H-purin-9-yl)propan-2-yl)oxy)methyl)((1-(2-ethylbutoxy)-2-methyl-1-oxopropan-2-l)amino)phosphoryl)amino)cyclopropane-1-carboxylate] | – | 233 nM
22 | CCC(CC)COC(=O)C(C)(C)N[P@@](=O)(CO[C@H](C)Cn1cnc2c(N)ncnc21)NC1(C(=O)OCC(CC)CC)CC1 [Example 72, 2-Ethylbutyl 1-(((S)-((((R)-1-(6-amino-9H-purin-9-yl)propan-2-yl)oxy)methyl)((1-(2-ethylbutoxy)-2-methyl-1-oxopropan-2-yl)amino)phosphoryl)amino)cyclopropane-1-carboxylate] | 16 nM | –
23 | CCCCCCOC(=O)C(C)(C)NP(=O)(CO[C@H](C)Cn1cnc2c(N)ncnc21)NC(C)(C)C(=O)OCC12CC(C1)C2 (stereo partly drawn) [Example 77, Bicyclo[1.1.1]pentan-1-ylmethyl 2-((((((R)-1-(6-amino-9H-purin-9-yl)propan-2-yl)oxy)methyl)((1-(hexyloxy)-2-methyl-1-oxopropan-2-yl)amino)phosphoryl)amino)-2-methylpropanoate] | > 500 nM | –

From patent publication US12110305B2, “Prodrugs of phosphonamide nucleotide analogues and their pharmaceutical use” (priority 2020, dated 2024)
